How the values were obtained:
Type in all cases: in vivo
Corn [1] = assay: Pre-emergence treatment, phytotoxicity to corn; details: 500 g/ha, 4 weeks after spraying, scale 0 to 10 (0: no effects, 10: complete death)
Description: (§1) A rectangular plastic pot having a surface area of 300 cm^2 was filled with sandy loam soil and mixed bed soil which were mixed at a ratio of 1:1, and then, barnyardrass (Echinochloa crusgalli), large crabgrass (Digitaria sanguinalis), blackgrass (Alopecurus myosuroides), and annual bluegrass (Poa annua), which are grass weeds, were seeded thereto. In a pot that was prepared as described above, seeds of corn, soybean, cotton, wheat, and rice were seeded. The pots were irrigated, and one day after, chemicals were sprayed thereto. The spraying was performed by using a track sprayer (R&D Sprayer, USA) equipped with a Teejet 8002 (Spraying Systems Co., USA) nozzle, and a spraying amount was adjusted at 300 L/ha. A spraying solution was prepared by dissolving test materials or references in acetone and adding the same amount of 0.2%(v/v) tween 20 aqueous solution thereto. Application rates were 500, 250, 125, and 62.5 g/ha. The pots were placed in a greenhouse in which during day, the temperature was maintained at a temperature of 25 to 30° C., and during night, the temperature was maintained at a temperature of 15 to 25° C., and the pots were periodically irrigated. Four weeks after the spraying the test materials or References, effects and phytotoxicity of the respective weeds and crops were evaluated in a scale of 0 to 10 (0: no effects, 10: complete death), and results thereof are shown in Table 4 below.

Wheat [2] = assay: Pre-emergence treatment, phytotoxicity to wheat; details: 500 g/ha, 4 weeks after spraying, scale 0 to 10 (0: no effects, 10: complete death)
Description: as §1

Poa annua [3] = assay: Post-emergence treatment, herbicidal efficacy on annual bluegrass; details: 4 weeks after spraying, scale 0 to 10
Description: as §1
(§2) Pots containing crops and weeds were prepared in the same manner as in Example 7, and then, in the second week in which crops and weeds entered into about 3 leaf stage, the test materials and the references were sprayed thereto in the same manner as described above. The rates were 1,000, 500, 250, and 125 g/ha. Four weeks after the spraying of the test materials or the references, herbicidal efficacy and phytotoxicity to the respective weeds and crops were evaluated in a scale of 0 to 10 (0: no effects, 10: complete death).

Cotton [4] = assay: Pre-emergence treatment, phytotoxicity to cotton; details: 500 g/ha, 4 weeks after spraying, scale 0 to 10 (0: no effects, 10: complete death)
Description: as §1

Soybean [5] = assay: Post-emergence treatment, phytotoxicity to soybean; details: post-emergence (about 3 leaf stage), 1,000 g/ha, 4 weeks after spraying, scale 0 to 10 (0: no effects, 10: complete death)
Description: as §1, §2

Soybean [6] = assay: Pre-emergence treatment, phytotoxicity to soybean; details: 500 g/ha, 4 weeks after spraying, scale 0 to 10 (0: no effects, 10: complete death)
Description: as §1

Echinochloa crusgalli [7] = assay: Post-emergence treatment, herbicidal efficacy on barnyardgrass; details: 4 weeks after spraying, scale 0 to 10
Description: as §1, §2

Rice [8] = assay: Post-emergence treatment, phytotoxicity to rice; details: post-emergence (about 3 leaf stage), 1,000 g/ha, 4 weeks after spraying, scale 0 to 10 (0: no effects, 10: complete death)
Description: as §1, §2

Corn [9] = assay: Post-emergence treatment, phytotoxicity to corn; details: post-emergence (about 3 leaf stage), 1,000 g/ha, 4 weeks after spraying, scale 0 to 10 (0: no effects, 10: complete death)
Description: as §1, §2

Alopecurus myosuroides [10] = assay: Pre-emergence treatment, herbicidal efficacy on blackgrass; details: 4 weeks after spraying, scale 0 to 10
Description: as §1

Rice [11] = assay: Pre-emergence treatment, phytotoxicity to rice; details: 500 g/ha, 4 weeks after spraying, scale 0 to 10 (0: no effects, 10: complete death)
Description: as §1

Digitaria sanguinalis [12] = assay: Pre-emergence treatment, herbicidal efficacy on large crabgrass; details: 4 weeks after spraying, scale 0 to 10
Description: as §1

Digitaria sanguinalis [13] = assay: Post-emergence treatment, herbicidal efficacy on large crabgrass; details: 4 weeks after spraying, scale 0 to 10
Description: as §1, §2

Alopecurus myosuroides [14] = assay: Post-emergence treatment, herbicidal efficacy on blackgrass; details: 4 weeks after spraying, scale 0 to 10
Description: as §1, §2

Echinochloa crusgalli [15] = assay: Pre-emergence treatment, herbicidal efficacy on barnyardgrass; details: 4 weeks after spraying
Description: as §1

Wheat [16] = assay: Post-emergence treatment, phytotoxicity to wheat; details: post-emergence (about 3 leaf stage), 1,000 g/ha, 4 weeks after spraying, scale 0 to 10 (0: no effects, 10: complete death)
Description: as §1, §2

Poa annua [17] = assay: Pre-emergence treatment, herbicidal efficacy on annual bluegrass; details: 4 weeks after spraying, scale 0 to 10
Description: as §1

Cotton [18] = assay: Post-emergence treatment, phytotoxicity to cotton; details: post-emergence (about 3 leaf stage), 1,000 g/ha, 4 weeks after spraying, scale 0 to 10 (0: no effects, 10: complete death)
Description: as §1, §2

[19] = 500 g/ha, scale 0 to 10 (0: no effects, 10: complete death)

Cc1ccccc1C1=NOC(C)(COCc2ccccc2F)C1 (stereo not drawn) [Reference D]
Phytotoxicity, Corn (Corn [1]): 0 | Phytotoxicity, Wheat (Wheat [2]): 0 | Herbicidal efficacy, Poa annua (Poa annua [3]; post-emergence, 125 g/ha): 0 | Herbicidal efficacy, Poa annua (Poa annua [3]; post-emergence, 250 g/ha): 0 | Herbicidal efficacy, Poa annua (Poa annua [3]; post-emergence, 500 g/ha): 2 | Herbicidal efficacy, Poa annua (Poa annua [3]; post-emergence, 1,000 g/ha): 5 | Phytotoxicity, Cotton (Cotton [4]): 0 | Phytotoxicity, Soybean (Soybean [5]): 0 | Phytotoxicity, Soybean (Soybean [6]): 0 | Herbicidal efficacy, Echinochloa crusgalli (Echinochloa crusgalli [7]; post-emergence, 125 g/ha): 0 | Herbicidal efficacy, Echinochloa crusgalli (Echinochloa crusgalli [7]; post-emergence, 250 g/ha): 0 | Herbicidal efficacy, Echinochloa crusgalli (Echinochloa crusgalli [7]; post-emergence, 500 g/ha): 1 | Herbicidal efficacy, Echinochloa crusgalli (Echinochloa crusgalli [7]; post-emergence, 1,000 g/ha): 4 | Phytotoxicity, Rice (Rice [8]): 0 | Phytotoxicity, Corn (Corn [9]): 0 | Herbicidal efficacy, Alopecurus myosuroides (Alopecurus myosuroides [10]; 62.5 g/ha): 0 | Herbicidal efficacy, Alopecurus myosuroides (Alopecurus myosuroides [10]; 125 g/ha): 0 | Herbicidal efficacy, Alopecurus myosuroides (Alopecurus myosuroides [10]; 250 g/ha): 3 | Herbicidal efficacy, Alopecurus myosuroides (Alopecurus myosuroides [10]; 500 g/ha): 9 | Phytotoxicity, Rice (Rice [11]): 0 | Herbicidal efficacy, Digitaria sanguinalis (Digitaria sanguinalis [12]; 62.5 g/ha): 0 | Herbicidal efficacy, Digitaria sanguinalis (Digitaria sanguinalis [12]; 125 g/ha): 2 | Herbicidal efficacy, Digitaria sanguinalis (Digitaria sanguinalis [12]; 250 g/ha): 6 | Herbicidal efficacy, Digitaria sanguinalis (Digitaria sanguinalis [12]; 500 g/ha): 10 | Herbicidal efficacy, Digitaria sanguinalis (Digitaria sanguinalis [13]; post-emergence, 125 g/ha): 0 | Herbicidal efficacy, Digitaria sanguinalis (Digitaria sanguinalis [13]; post-emergence, 250 g/ha): 0 | Herbicidal efficacy, Digitaria sanguinalis (Digitaria sanguinalis [13]; post-emergence, 500 g/ha): 4 | Herbicidal efficacy, Digitaria sanguinalis (Digitaria sanguinalis [13]; post-emergence, 1,000 g/ha): 7 | Herbicidal efficacy, Alopecurus myosuroides (Alopecurus myosuroides [14]; post-emergence, 125 g/ha): 0 | Herbicidal efficacy, Alopecurus myosuroides (Alopecurus myosuroides [14]; post-emergence, 250 g/ha): 0 | Herbicidal efficacy, Alopecurus myosuroides (Alopecurus myosuroides [14]; post-emergence, 500 g/ha): 3 | Herbicidal efficacy, Alopecurus myosuroides (Alopecurus myosuroides [14]; post-emergence, 1,000 g/ha): 4 | Herbicidal efficacy, Echinochloa crusgalli (Echinochloa crusgalli [15]; 62.5 g/ha, scale 0 to 10): 1 | Herbicidal efficacy, Echinochloa crusgalli (Echinochloa crusgalli [15]; 125 g/ha, scale 0 to 10): 3 | Herbicidal efficacy, Echinochloa crusgalli (Echinochloa crusgalli [15]; 250 g/ha, scale 0 to 10): 6 | Herbicidal efficacy, Echinochloa crusgalli (Echinochloa crusgalli [15]; [19]): 10 | Phytotoxicity, Wheat (Wheat [16]): 0 | Herbicidal efficacy, Poa annua (Poa annua [17]; 62.5 g/ha): 0 | Herbicidal efficacy, Poa annua (Poa annua [17]; 125 g/ha): 2 | Herbicidal efficacy, Poa annua (Poa annua [17]; 250 g/ha): 5 | Herbicidal efficacy, Poa annua (Poa annua [17]; 500 g/ha): 8 | Phytotoxicity, Cotton (Cotton [18]): 0

Cc1ccccc1C1=NOC(C)(COCc2c(F)cccc2Cl)C1 (stereo not drawn) [Reference E]
Phytotoxicity, Corn (Corn [1]): 0 | Phytotoxicity, Wheat (Wheat [2]): 0 | Herbicidal efficacy, Poa annua (Poa annua [3]; post-emergence, 125 g/ha): 0 | Herbicidal efficacy, Poa annua (Poa annua [3]; post-emergence, 250 g/ha): 2 | Herbicidal efficacy, Poa annua (Poa annua [3]; post-emergence, 500 g/ha): 6 | Herbicidal efficacy, Poa annua (Poa annua [3]; post-emergence, 1,000 g/ha): 7 | Phytotoxicity, Cotton (Cotton [4]): 0 | Phytotoxicity, Soybean (Soybean [5]): 1 | Phytotoxicity, Soybean (Soybean [6]): 0 | Herbicidal efficacy, Echinochloa crusgalli (Echinochloa crusgalli [7]; post-emergence, 125 g/ha): 0 | Herbicidal efficacy, Echinochloa crusgalli (Echinochloa crusgalli [7]; post-emergence, 250 g/ha): 2 | Herbicidal efficacy, Echinochloa crusgalli (Echinochloa crusgalli [7]; post-emergence, 500 g/ha): 5 | Herbicidal efficacy, Echinochloa crusgalli (Echinochloa crusgalli [7]; post-emergence, 1,000 g/ha): 6 | Phytotoxicity, Rice (Rice [8]): 0 | Phytotoxicity, Corn (Corn [9]): 3 | Herbicidal efficacy, Alopecurus myosuroides (Alopecurus myosuroides [10]; 62.5 g/ha): 0 | Herbicidal efficacy, Alopecurus myosuroides (Alopecurus myosuroides [10]; 125 g/ha): 0 | Herbicidal efficacy, Alopecurus myosuroides (Alopecurus myosuroides [10]; 250 g/ha): 4 | Herbicidal efficacy, Alopecurus myosuroides (Alopecurus myosuroides [10]; 500 g/ha): 9 | Phytotoxicity, Rice (Rice [11]): 0 | Herbicidal efficacy, Digitaria sanguinalis (Digitaria sanguinalis [12]; 62.5 g/ha): 0 | Herbicidal efficacy, Digitaria sanguinalis (Digitaria sanguinalis [12]; 125 g/ha): 5 | Herbicidal efficacy, Digitaria sanguinalis (Digitaria sanguinalis [12]; 250 g/ha): 9 | Herbicidal efficacy, Digitaria sanguinalis (Digitaria sanguinalis [12]; 500 g/ha): 10 | Herbicidal efficacy, Digitaria sanguinalis (Digitaria sanguinalis [13]; post-emergence, 125 g/ha): 0 | Herbicidal efficacy, Digitaria sanguinalis (Digitaria sanguinalis [13]; post-emergence, 250 g/ha): 1 | Herbicidal efficacy, Digitaria sanguinalis (Digitaria sanguinalis [13]; post-emergence, 500 g/ha): 6 | Herbicidal efficacy, Digitaria sanguinalis (Digitaria sanguinalis [13]; post-emergence, 1,000 g/ha): 7 | Herbicidal efficacy, Alopecurus myosuroides (Alopecurus myosuroides [14]; post-emergence, 125 g/ha): 0 | Herbicidal efficacy, Alopecurus myosuroides (Alopecurus myosuroides [14]; post-emergence, 250 g/ha): 0 | Herbicidal efficacy, Alopecurus myosuroides (Alopecurus myosuroides [14]; post-emergence, 500 g/ha): 2 | Herbicidal efficacy, Alopecurus myosuroides (Alopecurus myosuroides [14]; post-emergence, 1,000 g/ha): 4 | Herbicidal efficacy, Echinochloa crusgalli (Echinochloa crusgalli [15]; 62.5 g/ha, scale 0 to 10): 2 | Herbicidal efficacy, Echinochloa crusgalli (Echinochloa crusgalli [15]; 125 g/ha, scale 0 to 10): 5 | Herbicidal efficacy, Echinochloa crusgalli (Echinochloa crusgalli [15]; 250 g/ha, scale 0 to 10): 8 | Herbicidal efficacy, Echinochloa crusgalli (Echinochloa crusgalli [15]; [19]): 10 | Phytotoxicity, Wheat (Wheat [16]): 0 | Herbicidal efficacy, Poa annua (Poa annua [17]; 62.5 g/ha): 2 | Herbicidal efficacy, Poa annua (Poa annua [17]; 125 g/ha): 5 | Herbicidal efficacy, Poa annua (Poa annua [17]; 250 g/ha): 9 | Herbicidal efficacy, Poa annua (Poa annua [17]; 500 g/ha): 10 | Phytotoxicity, Cotton (Cotton [18]): 3
